Laboratory results: patent US8501752B2, “Methods for treating cancer and other pathological proliferating disorders by inhibiting mitosis using pyrrolo[2,3-d]pyrimidines” (Duquesne University of the Holy Ghost, priority 2005, dated 2013)
Where two headings read alike, the source gives them in different places.

Legend:
NCI/ADR cells = assay: Cytotoxicity, NCI/ADR cells that overexpress P-glycoprotein
Description: (§3) These cell lines are resistant to anticancer drugs due to overexpression of the transport proteins P-glycoprotein or MRP1.

A498 = assay: NCI IVCLSP growth inhibition (SRB), A498; format: cell-based, human; settings: renal cancer A498 cell
Description: (§1) FIG. 1 presents nine compounds that were tested using the National Cancer Institute (NCI) 60 human tumor cell lines. The cells lines, which represent leukemia, melanoma, and cancers of the lung, colon, brain, ovary, breast, prostate, and kidney, are listed in Table 1.
Compounds 1-9 were tested according to the NCI Developmental Therapeutics Program (DTP) In Vitro Cell Line Screening Project (IVCLSP). […] Methodology for testing under the IVCLSP is as follows: The human tumor cell lines of the cancer screening panel are grown in RPMI 1640 medium containing 5% fetal bovine serum and 2 mM L-glutamine. […]
Following drug addition, the plates are incubated for an additional 48 h at 37° C., 5% CO2, 95% air, and 100% relative humidity. […] Bound stain is subsequently solubilized with 10 mM trizma base, and the absorbance is read on an automated plate reader at a wavelength of 515 nm. […] Using the seven absorbance measurements [time zero, (Tz), control growth, (C), and test growth in the presence of drug at the five concentration levels (Ti)], the percentage growth is calculated at each of the drug concentrations levels. Percentage growth inhibition is calculated as: [(Ti−Tz)/(C−Tz)]×100 for concentrations for which Ti>/=Tz [(Ti−Tz)/Tz]×100 for concentrations for which Ti<Tz.
Three dose response parameters are calculated for each experimental agent. […]

P-glycoprotein = biological target: T1, P-glycoprotein (Homo sapiens, UniProt P08183); assay: P-glycoprotein antagonism: sensitivity of NCI/ADR cells to vinblastine; format: cell-based; settings: absence or presence of 50 nM vinblastine
T1 construct: NCI/ADR cells that overexpress P-glycoprotein; endogenous in cells; host or cells: NCI/ADR cells
T1 sequence (P08183 whole entry): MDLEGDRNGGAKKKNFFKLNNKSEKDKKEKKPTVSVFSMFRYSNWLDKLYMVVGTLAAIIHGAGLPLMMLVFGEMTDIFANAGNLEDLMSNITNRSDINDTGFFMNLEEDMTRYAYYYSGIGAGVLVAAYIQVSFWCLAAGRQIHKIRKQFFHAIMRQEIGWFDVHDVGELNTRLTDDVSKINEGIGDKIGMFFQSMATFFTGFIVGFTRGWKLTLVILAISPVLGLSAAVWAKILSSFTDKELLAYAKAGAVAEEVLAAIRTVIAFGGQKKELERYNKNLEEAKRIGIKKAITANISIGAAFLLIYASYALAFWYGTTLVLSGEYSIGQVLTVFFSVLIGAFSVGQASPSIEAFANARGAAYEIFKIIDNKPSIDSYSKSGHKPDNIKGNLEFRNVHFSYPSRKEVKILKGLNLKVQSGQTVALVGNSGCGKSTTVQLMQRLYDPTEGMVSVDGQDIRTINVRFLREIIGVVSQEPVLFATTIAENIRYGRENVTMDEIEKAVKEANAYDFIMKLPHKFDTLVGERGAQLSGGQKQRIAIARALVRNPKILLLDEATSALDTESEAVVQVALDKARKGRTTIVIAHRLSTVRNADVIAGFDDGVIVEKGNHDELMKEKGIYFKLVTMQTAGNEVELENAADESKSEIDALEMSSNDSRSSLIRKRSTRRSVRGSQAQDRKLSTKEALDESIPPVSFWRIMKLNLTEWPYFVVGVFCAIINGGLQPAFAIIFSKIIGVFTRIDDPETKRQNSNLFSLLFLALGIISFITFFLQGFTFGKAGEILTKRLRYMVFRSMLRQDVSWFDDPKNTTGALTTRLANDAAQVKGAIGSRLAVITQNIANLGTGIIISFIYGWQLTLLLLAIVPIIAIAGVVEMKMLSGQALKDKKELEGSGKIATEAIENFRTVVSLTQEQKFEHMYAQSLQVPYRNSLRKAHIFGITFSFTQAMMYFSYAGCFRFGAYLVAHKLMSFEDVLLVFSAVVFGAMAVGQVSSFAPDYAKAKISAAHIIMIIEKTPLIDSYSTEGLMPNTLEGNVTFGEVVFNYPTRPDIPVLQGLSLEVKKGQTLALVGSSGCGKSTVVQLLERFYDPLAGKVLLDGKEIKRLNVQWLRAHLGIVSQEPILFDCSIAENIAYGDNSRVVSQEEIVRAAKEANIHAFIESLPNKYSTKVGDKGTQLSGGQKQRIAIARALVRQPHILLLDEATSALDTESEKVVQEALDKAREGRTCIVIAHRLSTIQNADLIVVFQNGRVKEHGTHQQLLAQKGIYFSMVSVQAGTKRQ
Text: To determine if this is due to inhibition of drug transport activity by these proteins, the effects of these compounds on P-glycoprotein were further characterized. The effects of the compounds on the sensitivity of NCI/ADR cells to vinblastine and of MCF-7/VP cells to vincristine were examined to evaluate antagonism of P-glycoprotein and MRP1, respectively. FIGS. 4a-b present graphs of antagonism score versus concentration for P-glycoprotein and MRP1, respectively.
The Pgp antagonism score is calculated as the percentage survival of cells in the absence of vinblastine/percentage survival in the presence of vinblastine. […] The MRP1 antagonism score is calculated as the percentage survival of cells in the absence of vincristine/percentage survival in the presence of vincristine. […] Concentrations of Compounds 1-5 above their IC50 toward MCF-7 cells are not indicated. Data for one of three similar experiments is shown.

[1] = system: NCI 60 human tumor cell lines; assay: NCI IVCLSP growth inhibition, whole panel (text summaries); format: cell-based; settings: NCI 60 tumor panel
Description: as §1
Compounds 1-9 were tested according to the NCI Developmental Therapeutics Program (DTP) In Vitro Cell Line Screening Project (IVCLSP). […] Methodology for testing under the IVCLSP is as follows: The human tumor cell lines of the cancer screening panel are grown in RPMI 1640 medium containing 5% fetal bovine serum and 2 mM L-glutamine. For a typical screening experiment, cells are inoculated into 96 well microtiter plates in 100 μL at plating densities ranging from 5,000 to 40,000 cells/well depending on the doubling time of individual cell lines. After cell inoculation, the microtiter plates are incubated at 37° C., 5% CO2, 95% air and 100% relative humidity for 24 h prior to addition of experimental drugs.
After 24 h, two plates of each cell line are fixed in situ with TCA, to represent a measurement of the cell population for each cell line at the time of drug addition (Tz). Experimental drugs are solubilized in dimethyl sulfoxide at 400-fold the desired final maximum test concentration and stored frozen prior to use. At the time of drug addition, an aliquot of frozen concentrate is thawed and diluted to twice the desired final maximum test concentration with complete medium containing 50 μg/ml gentamicin. Additional four, 10-fold or ½ log serial dilutions are made to provide a total of five drug concentrations plus control. Aliquots of 100 μl of these different drug dilutions are added to the appropriate microtiter wells already containing 100 μl of medium, resulting in the required final drug concentrations.
Following drug addition, the plates are incubated for an additional 48 h at 37° C., 5% CO2, 95% air, and 100% relative humidity. For adherent cells, the assay is terminated by the addition of cold TCA. Cells are fixed in situ by the gentle addition of 50 μl of cold 50% (w/v) TCA (final concentration, 10% TCA) and incubated for 60 minutes at 4° C. The supernatant is discarded, and the plates are washed five times with tap water and air dried. Sulforhodamine B (SRB) solution (100 μl) at 0.4% (w/v) in 1% acetic acid is added to each well, and plates are incubated for 10 minutes at room temperature. After staining, unbound dye is removed by washing five times with 1% acetic acid and the plates are air dried. Bound stain is subsequently solubilized with 10 mM trizma base, and the absorbance is read on an automated plate reader at a wavelength of 515 nm. For suspension cells, the methodology is the same except that the assay is terminated by fixing settled cells at the bottom of the wells by gently adding 50 μl of 80% TCA (final concentration, 16% TCA). Using the seven absorbance measurements [time zero, (Tz), control growth, (C), and test growth in the presence of drug at the five concentration levels (Ti)], the percentage growth is calculated at each of the drug concentrations levels. Percentage growth inhibition is calculated as: [(Ti−Tz)/(C−Tz)]×100 for concentrations for which Ti>/=Tz [(Ti−Tz)/Tz]×100 for concentrations for which Ti<Tz.
Three dose response parameters are calculated for each experimental agent. […] The drug concentration resulting in total growth inhibition (TGI) is calculated from Ti=Tz. […]

MCF-7/VP cells = assay: Cytotoxicity, MCF-7/VP cells that overexpress MRP1
Description: as §3

MCF-7 cells = assay: Cytotoxicity, drug-sensitive MCF-7 cells
Description: as §3

[2] = system: T24 human bladder carcinoma cells; assay: Cytotoxicity, T24 cells; format: cell-based; settings: mean ± SEM for 3 experiments
p53 = assay: Western blot, p53 expression in MCF-7 cells; format: cell-based, human; settings: 24 hours, various concentrations
Description: (§2) To further characterize the cell cycle effects of Compound 1 on human tumor cells, MCF-7 cells were treated for 24 hours with various concentrations of Compound 1, vinblastine, or TAXOL (paclitaxel). Cells were then harvested, lysed, and analyzed for levels of expression of p53 and WAF1 by Western Blot analyses. […] Compound 1 is identified as “149” in these figures. […] None of these treatments affected the expression of bcl-2 or P-tubulin in the MCF-7 cells.

WAF1 = assay: Western blot, WAF1 expression in MCF-7 cells; format: cell-based, human; settings: 24 hours, various concentrations
Description: as §2

[3] = system: A-10 rat smooth muscle cells; assay: Microtubule structure, indirect immunofluorescence, A-10 cells; format: cell-based; settings: 24 hours; 625 nM TAXOL, 167 nM vinblastine, 900 nM Compound 1
Description: Because of the morphological effects of Compound 1 on cultured cells and the NCI COMPARE analysis results described above, the effects of vinblastine, TAXOL (paclitaxel), and Compound 1 on microtubule structure were examined. For these studies, A-10 rat smooth muscle cells were used since they grow as flat monolayers that are amenable to imaging. The A-10 cells were treated for 24 hours with EtOH (control), 625 nM TAXOL (paclitaxel), 167 nM vinblastine, and 900 nM of Compound 1. Microtubules were then visualized by indirect immunofluoresence staining with B-tubulin antibodies. FIGS. 2a-d present representative fields for the control, TAXOL (paclitaxel), vinblastine, and Compound 1 (“149”), respectively. None of these compounds affected the morphology of stress fibers composed of microfilaments.

[4] = system: HL-60 human promyelocytic leukemia cells; assay: Flow cytometric cell cycle phase distribution; format: cell-based; settings: 24 hours treatment
Description: Flow cytometric analyses were used to assess the effects of Compound 1 and various antimicrotubule drugs on the cell cycle phase distributions of HL-60 human promyelocytic leukemia cells. The percentage of cells in the G2/M phases were increased approximately 2-fold by treatment of the cells for 24 hours with either TAXOL (paclitaxel), vinblastine, colchicine, or Compound 1.

| SMILES | change of cytotoxic potency by substitution (in words) (NCI/ADR cells; NCI/ADR, relative to unsubstituted Compound 5) | IC50 (NCI/ADR cells; read-out: Cytotoxicity IC50, NCI/ADR, mean ± SEM for 3 experiments) | GI50 level (in words) (A498) | effect on P-glycoprotein-mediated resistance (in words) (P-glycoprotein) | GI50 values, level across the tumor cell lines (in words) [1] | IC50 (MCF-7/VP cells; read-out: Cytotoxicity IC50, MCF-7/VP, mean ± SEM for 3 experiments) | IC50 (MCF-7 cells; read-out: Cytotoxicity IC50, MCF-7, mean ± SEM for 3 experiments) | IC50 [2] | level of expression of p53 (in words) (p53) | IC50 (NCI/ADR cells; Homo sapiens, NCI/ADR-RES, read-out: drug sensitivity (IC50), NCI/ADR) | Resistance (NCI/ADR relative to MCF-7) (NCI/ADR cells; P-glycoprotein) | level of expression of WAF1 (in words) (WAF1) | effect on microtubule structure (in words) [3] | IC50 (MCF-7/VP cells; Homo sapiens, MCF7-VP, read-out: drug sensitivity (IC50), MCF-7/VP) | Resistance (MCF-7/VP relative to MCF-7) (MCF-7/VP cells; MRP1) | IC50 (MCF-7 cells; Homo sapiens, MCF7, read-out: drug sensitivity (IC50), MCF-7) | increase of the percentage of cells in the G2/M phases ([4]; HL-60) | cell cycle distribution, G2/M ([4]; percentage of HL-60 cells) | cell cycle distribution, G9/G1 ([4]; percentage of HL-60 cells) | cell cycle distribution, S ([4]; percentage of HL-60 cells) |
| --- | --- | --- | --- | --- | --- | --- | --- | --- | --- | --- | --- | --- | --- | --- | --- | --- | --- | --- | --- | --- |
| COc1cccc(CCc2cn(Cc3ccccc3)c3nc(N)nc(C)c23)c1 [Compound 3] | enhanced the potency | 5.7 ± 0.7 µM | two digit nanomolar level | dose-dependent sensitization | micromolar range for 8 of the 56 tumor cell lines | 22 ± 4.2 µM | 8 ± 3.5 µM | 25 ± 2.9 µM |  |  |  |  |  |  |  |  |  |  |  |  |
| CC[C@]1(O)C[C@@H]2CN(CCc3c([nH]c4ccccc34)[C@@](C(=O)OC)(c3cc4c(cc3OC)N(C)[C@H]3[C@@](O)(C(=O)OC)[C@H](OC(C)=O)[C@]5(CC)C=CCN6CC[C@]43[C@@H]65)C2)C1 [Vinblastine, vinblastine] |  |  |  |  |  |  |  |  | marked increases | > 0.375 µM | >134 | marked increases | caused marked depletion of cellular microtubules | 0.003 ± 0.0006 µM | 1.1 | 0.0028 ± 0.0005 µM | approximately 2 fold | 10.1 ± 0.3 | 83.3 ± 1.3 | 6.6 ± 1.6 |
